These are literature values, as cited in US20200354441A1, “TREATMENT OF DISORDERS” (Apellis Pharmaceuticals, Inc., priority 2017, published 2020).

Data set [1] relates to complement activation (alternative pathway). The settings on record: alternative pathway-mediated erythrocyte lysis assay (WO2004/026328).
The subject of the next data set is complement activation. Conditions: relative to compstatin amidated at the C-terminus; published data (WO2004/026328, WO2007044668, Mallik 2005, Katragadda 2006).

pIC50: −log10 of the molar value.

As for `CC[C@H](C)[C@H](N)C(=O)N[C@H]1CSSC[C@@H](C(=O)N[C@H](C(N)=O)[C@@H](C)O)NC(=O)[C@H](CCCN=C(N)N)NC(=O)[C@H](Cc2cnc[nH]2)NC(=O)[C@H](Cc2cnc[nH]2)NC(=O)CNC(=O)[C@H](Cc2c[nH]c3ccccc23)NC(=O)[C@H](CC(=O)O)NC(=O)[C@H](CCC(N)=O)NC(=O)[C@H](C(C)C)NC(=O)[C@H](C(C)C)NC1=O` [Compstatin, H-ICVVQDWGHHRCT-CONH2], the negative-log IC50 (pIC50) in data set [1] is 4.92.

With Ac-ICVVQDWGHHRCT-CONH2 [Ac-compstatin], the Activity over compstatin in the data set on complement activation is 3× more.

For “Ac-ICVWQD(5fW)GAHRCT-CONH2 [Ac-V4W/W7(5fW)/H9A]”, the Activity over compstatin in the data set on complement activation is 121× more.

On to “Ac-ICVWQDWGAHRCdT-COOH [Ac-V4W/H9A/T13dT -OH]”, for which, in the data set on complement activation, the Activity over compstatin is 55× more.

Take “H-GICV(6fW)QD(6fW)GAHRCTN-COOH (6-fluoro-Trp, C-terminal acid) [+G/V4(6fW)/W7(6fW)H9A+N-OH]”: the Activity over compstatin in the data set on complement activation was 126× more.
